Values of other authors as cited in article PMC9088800, “Expanded LUXendin Color Palette for GLP1R Detection and Visualization In Vitro and In Vivo” (JACS Au, 2022).

Details: phase III trials, combined with lifestyle interventions
Source text: The glucagon-like peptide-1 receptor (GLP1R) is a class B G protein-coupled receptor involved in the regulation of glucose homeostasis, food intake, and inflammation.[1],[2] As such, GLP1R agonist (GLP1RA) therapy has become a mainstay of type-2 diabetes treatment during the past decade, with a number of drugs on the market based upon stabilized analogues of glucagon-like peptide-1.[3] Most recently, phase III trials of the third-generation semaglutide have shown a ∼15% reduction in body weight when combined with lifestyle interventions,[4] leading to the approval of GLP1RAs as the first nonsu ...

semaglutide
Reduction in body weight: ~15%
